These results are taken from PubChem BioAssay (NCI).

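1) Cells in 96-well plates. 2) Compound, 48 h, 5 concentrations. 3) Linear interpolation between surrounding doses. 4) Unreached endpoint = highest concentration. TGI denotes the concentration required for complete inhibition of growth.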 A value given as a limit tells only on which side of the number the result lay.

Test in all cases: NCI anticancer screen, dose series, 48 h
In assay [1] the test system is ACHN renal.
Assay [2] relates to SF-295 CNS.
In assay [3] the test system is HCC-2998 colon.
Assay [4] has as its system RXF 393 renal.
In assay [5] the test system is MOLT-4 leukemia.
Assay [6] concerns HS 578T breast.
The test system of assay [7] is SR leukemia.
The test system of assay [8] is NCI/ADR-RES ovarian.
Assay [9] deals with A498 renal.
For assay [10], the system named is UACC-62 melanoma.

For `CCCCc1ccc(Nc2nc3c(ncn3C3OC(COC(C)=O)C(OC(C)=O)C3OC(C)=O)c(=O)[nH]2)cc1` (stereo not given), the TGI in assay [1] was greater than 100 µM; in assay [2], 53.1 µM; in [3] it was 35.5 µM; in [4], 41.7 µM; in assay [5], 37.8 µM; in assay [6], 56 µM. For the same molecule, the TGI in [7] is 35.9 µM; in assay [8], greater than 100 µM; in [9], greater than 100 µM; in assay [10], 34.7 µM.

Consider `CCN(CC)CCN1c2ccccc2Sc2ccc3ccccc3c21`, for which the TGI came out at 29.2 µM in assay [1]; 26.4 µM in assay [2]; 6.86 µM in [3]; 9.5 µM in assay [4]; 7.66 µM in assay [5]; 32.6 µM in [6]. For the same molecule, the TGI in assay [7] amounted to 20.9 µM; in assay [8], 25.6 µM; in assay [9], 24.7 µM; in [10], 22 µM.

With `COc1ccc(C2CCc3nc4nc(N)nc(N)c4cc3C2)cc1` (stereo not given), the TGI is 22 µM in [1]; 89.6 µM in assay [2]; greater than 100 µM in assay [3]; 37.2 µM in assay [4]; 65.3 µM in assay [5]; greater than 100 µM in assay [6]. The TGI was 67.3 µM in [7], greater than 100 µM in [8], 77.1 µM in [9] and greater than 100 µM in [10].

Regarding `COC1/C=C/C(C)C(OC)CC(O)/C=C/C(C)C(C(C)C(OC)C(C)CCC(=O)C(C)C(C/C=C/N(C)C=O)OC)OC(=O)/C=C/C=C(\C)CC(OC)C(OC)C2=CC(=O)O[C@@H](C(C)C(OC)C1)[C@H]2O` (stereo not given in full), the TGI in assay [1] was 0.158 µM; in assay [2] it was 0.0797 µM; in assay [3], 0.0518 µM; in [4], 0.078 µM; in [5] it was greater than 9.73 µM; in [6], 0.093 µM. For the same molecule, the TGI in assay [7] was greater than 25 µM; in assay [8], 0.145 µM; in assay [9] it was 0.0614 µM; in [10] it was 0.185 µM.

On to `O=C(CSc1nc2ccc(I)cc2c(=O)n1Cc1ccccc1)N/N=C/c1ccccc1`, for which the TGI in [1] is greater than 100 µM; in [2], 30.9 µM; in assay [3] it was greater than 100 µM; in assay [4] it was 26.7 µM; in assay [5], greater than 100 µM; in assay [6], 9.09 µM. Moreover, the TGI in assay [7] was greater than 100 µM; in [8], 92 µM; in [9], 43.7 µM; in assay [10], greater than 100 µM.

For the molecule `Cn1c(-c2ccccc2)cc(-c2ccc3c(c2)OCO3)c1-c1cccs1`, the TGI in assay [1], in assay [2], in [3], in assay [4], in [5] and in [6] was greater than 100 µM in each case. The TGI in [7], in assay [8], in [9] and in [10] was greater than 100 µM in each case.
